In assay [1] the test system is Haemophilus influenzae. The assay can be described thus: In vitro antimicrobial activity against Haemophilus influenzae. It is filed as functional.
Assay [2] relates to Staphylococcus aureus. The assay can be described thus: In vitro antimicrobial activity against Staphylococcus aureus X1. It is filed as functional.
Assay [3] has as its system Staphylococcus epidermidis. Put plainly: In vitro antimicrobial activity against Staphylococcus epidermidis EPI1. The format is functional.
Assay [4] has as its system Streptococcus pyogenes. Put plainly: In vitro antimicrobial activity against Streptococcus pyogenes C203. It is filed as functional.
Assay [5] deals with Streptococcus pyogenes. Put plainly: In vivo effective dose against experimental infections in rodent caused by Streptococcus pyogenes C203 when administered sc. The format is functional.
In assay [6] the test system is Streptococcus pneumoniae. Put plainly: In vitro antimicrobial activity against Streptococcus pneumoniae. The format is functional.
Assay [7] has as its system Enterococcus faecium. Put plainly: In vitro antimicrobial activity against Streptococcus faecium X66. It is filed as functional, streptococcus fae-cium.

≈ marks a conversion by molar mass, not a printed value.

Regarding `CC[C@H]1OC(=O)C[C@@H](O)[C@H](C)[C@@H](O[C@@H]2O[C@H](C)[C@@H](O)[C@H](N(C)C)[C@H]2O)[C@@H](CCOC(C(F)(F)F)C(F)(F)F)C[C@@H](C)C(=O)/C=C/C(C)=C/[C@@H]1CO[C@@H]1O[C@H](C)[C@@H](O)[C@@H](OC)[C@H]1OC`, the MIC came out at 64 µg/mL (≈ 69.3 µM) in assay [1]; 0.5 µg/mL (≈ 0.541 µM) in assay [2]; 0.5 µg/mL (≈ 0.541 µM) in assay [3]; 0.5 µg/mL (≈ 0.541 µM) in assay [4]; 4 µg/mL (≈ 4.33 µM) in assay [6]; 32 µg/mL (≈ 34.6 µM) in assay [7]. For the same molecule, the median effective dose (ED50) (as a rule, the midpoint of the dose-response relation) in assay [5] was above 10 mg/kg.
Turning to `CC[C@H]1OC(=O)C[C@@H](O)[C@H](C)[C@@H](O[C@@H]2O[C@H](C)[C@@H](O[C@H]3C[C@@](C)(O)[C@@H](O)[C@H](C)O3)[C@H](N(C)C)[C@H]2O)[C@@H](CCN=[N+]=[N-])C[C@@H](C)C(=O)/C=C/C(C)=C/[C@@H]1CO[C@@H]1O[C@H](C)[C@@H](O)[C@@H](OC)[C@H]1OC`, the MIC in assay [1] was above 128 µg/mL; in assay [2] it was 2 µg/mL (≈ 2.12 µM); in assay [3], 1 µg/mL (≈ 1.06 µM); in assay [4] it was 2 µg/mL (≈ 2.12 µM); in assay [6], 32 µg/mL (≈ 33.9 µM); in assay [7], 128 µg/mL (≈ 136 µM). The same molecule had a 50% effective dose (ED50) in assay [5] of 6.3 mg/kg.
With `CC[C@H]1OC(=O)C[C@@H](O)[C@H](C)[C@@H](O[C@@H]2O[C@H](C)[C@@H](O)[C@H](N(C)C)[C@H]2O)[C@@H](CCO[N+](=O)[O-])C[C@@H](C)C(=O)/C=C/C(C)=C/[C@@H]1CO[C@@H]1O[C@H](C)[C@@H](O)[C@@H](OC)[C@H]1OC`, the MIC stood at 16 µg/mL (≈ 19.5 µM) in assay [1]; 0.25 µg/mL (≈ 0.305 µM) in assay [2]; 0.25 µg/mL (≈ 0.305 µM) in assay [3]; 0.25 µg/mL (≈ 0.305 µM) in assay [4]; 2 µg/mL (≈ 2.44 µM) in assay [6]; 8 µg/mL (≈ 9.77 µM) in assay [7].
In the case of `CC[C@H]1OC(=O)C[C@@H](O)[C@H](C)[C@@H](O[C@@H]2O[C@H](C)[C@@H](O[C@H]3C[C@@](C)(O)[C@@H](O)[C@H](C)O3)[C@H](N(C)C)[C@H]2O)[C@@H](CCOc2cccc(N(C)C)c2)C[C@@H](C)C(=O)/C=C/C(C)=C/[C@@H]1CO[C@@H]1O[C@H](C)[C@@H](O)[C@@H](OC)[C@H]1OC`, the MIC in assay [1] turned out to be 128 µg/mL (≈ 123 µM); in assay [2] it was 1 µg/mL (≈ 0.964 µM); in assay [3], 1 µg/mL (≈ 0.964 µM); in assay [4] it was 1 µg/mL (≈ 0.964 µM); in assay [6] it was 8 µg/mL (≈ 7.71 µM); in assay [7] it was 64 µg/mL (≈ 61.7 µM).
On to `CC[C@H]1OC(=O)C[C@@H](O)[C@H](C)[C@@H](O[C@@H]2O[C@H](C)[C@@H](O[C@H]3C[C@@](C)(O)[C@@H](O)[C@H](C)O3)[C@H](N(C)C)[C@H]2O)[C@@H](CCOc2cc(Cl)cc(Cl)c2)C[C@@H](C)C(=O)/C=C/C(C)=C/[C@@H]1CO[C@@H]1O[C@H](C)[C@@H](O)[C@@H](OC)[C@H]1OC`, for which the MIC in assay [1] is above 128 µg/mL; in assay [2], 1 µg/mL (≈ 0.941 µM); in assay [3] it was 2 µg/mL (≈ 1.88 µM); in assay [4], 1 µg/mL (≈ 0.941 µM); in assay [6], 16 µg/mL (≈ 15.1 µM); in assay [7], above 128 µg/mL.
Take `CC[C@H]1OC(=O)C[C@@H](O)[C@H](C)[C@@H](O[C@@H]2O[C@H](C)[C@@H](O[C@H]3C[C@@](C)(O)[C@@H](O)[C@H](C)O3)[C@H](N(C)C)[C@H]2O)[C@@H](CCI)C[C@@H](C)C(=O)/C=C/C(C)=C/[C@@H]1CO[C@@H]1O[C@H](C)[C@@H](O)[C@@H](O)[C@H]1OC`: the MIC is 128 µg/mL (≈ 126 µM) in assay [1]; 2 µg/mL (≈ 1.97 µM) in assay [2]; 2 µg/mL (≈ 1.97 µM) in assay [3]; 4 µg/mL (≈ 3.94 µM) in assay [4]; 16 µg/mL (≈ 15.8 µM) in assay [6]; 128 µg/mL (≈ 126 µM) in assay [7].
On to `CC[C@H]1OC(=O)C[C@@H](O)[C@H](C)[C@@H](O[C@@H]2O[C@H](C)[C@@H](O[C@H]3C[C@@](C)(O)[C@@H](O)[C@H](C)O3)[C@H](N(C)C)[C@H]2O)[C@@H](CC=O)C[C@@H](C)C(=O)/C=C/C(C)=C/[C@@H]1C`, for which the MIC worked out at 8 µg/mL (≈ 11 µM) in assay [1]; 0.5 µg/mL (≈ 0.689 µM) in assay [2]; 0.5 µg/mL (≈ 0.689 µM) in assay [3]; 0.25 µg/mL (≈ 0.344 µM) in assay [4]; 0.12 µg/mL (≈ 0.165 µM) in assay [6]; 0.5 µg/mL (≈ 0.689 µM) in assay [7].
Consider `CC[C@H]1OC(=O)C[C@@H](O)[C@H](C)[C@@H](O[C@@H]2O[C@H](C)[C@@H](O)[C@H](N(C)C)[C@H]2O)[C@@H](CCOC)C[C@@H](C)C(=O)/C=C/C(C)=C/[C@@H]1CO[C@@H]1O[C@H](C)[C@@H](O)[C@@H](OC)[C@H]1OC`, for which the MIC turned out to be 0.5 µg/mL (≈ 0.635 µM) in assay [2]; 0.5 µg/mL (≈ 0.635 µM) in assay [3]; 0.5 µg/mL (≈ 0.635 µM) in assay [4]; 4 µg/mL (≈ 5.08 µM) in assay [6]; 16 µg/mL (≈ 20.3 µM) in assay [7]. Besides, the ED50 in assay [5] was above 6.3 mg/kg.
For `CC[C@H]1C[C@@H](C)C(=O)/C=C/C(C)=C/[C@H](C)[C@@H](CC)OC(=O)C[C@@H](O)[C@H](C)[C@H]1O[C@@H]1O[C@H](C)[C@@H](O[C@H]2C[C@@](C)(O)[C@@H](O)[C@H](C)O2)[C@H](N(C)C)[C@H]1O`, the MIC in assay [1] was above 128 µg/mL; in assay [2] it was 128 µg/mL (≈ 180 µM); in assay [3] it was 64 µg/mL (≈ 89.9 µM); in assay [4], 128 µg/mL (≈ 180 µM); in assay [6] it was 64 µg/mL (≈ 89.9 µM); in assay [7], above 128 µg/mL.

(Values after ChEMBL document CHEMBL1124186, “Synthesis and evaluation of tylosin-related macrolides modified at the aldehyde function: a new series of orally effective antibiotics” (1988).)
